The experiment concerns the target FABP4 (Homo sapiens, UniProt P15090). Nature of the experiment: TdF-based ligand binding affinity (FABP inhibitory activity assay). The note with it: TdF-based ligand binding affinity constant. From the text: Theoretical basis for TdF-based ligand binding affinity constant
The derivation of TdF-based ligand binding affinity constant (Kd) followed closely those previously formulated by Brandts and Lin, Biochemistry 29 (1990) 6927-6940. In brief, the binding constant of the ligand at the Tm is expressed as below: […]
where T0 is the midpoint of unfolding for unliganded protein and Tm is the midpoint of unfolding in presence of ligand. [LTm] is free ligand at Tm. The ΔHu and ΔCpu are the enthalpy of unfolding and heat capacity change of unfolding for the protein respectively. The ΔCPu is proportional to the size of protein and is an approximate quantity in the above equation (empirically, ΔCpu=(MW of protein/115)*14 cal/mol*K). Following algorithm derived by Mayhood et al, (Analytical Biochemistry 345 (2005) 187-197), the T0 and ΔHu can be determined separately from nonlinear regression fitting the temperature dependent protein alone curve to the following equation: […]
The nonlinear regression fitting in general readily reaches convergence by properly constraining the initial values for the fitting parameters (e.g. the initial “guess” for the ΔHu was constrained to 120 kcal/mol; initial Yn and mr, were set to 1 and zero to best represent the melting curve along the low temperature region; negative slope of −0.5 was initially chosen for mu; initial Tm was also constrained to 50° C.).
(see Brandts et al and Mayhood et al, shown above) where ΔHL (T) is the van't Hoff enthalpy of ligand binding at temperature T and ΔCpL is the heat capacity upon ligand binding. For simplicity, the ΔCpL and ΔHL (T) were set to zero and −7 kcal/mol respectively. (The ΔCpL accounts for minimal portion of total protein-ligand binding energetics and is therefore set to zero (For example, see Hossein Naghibi et al, Proc. Natl. Acad. Sci. 92, 5597-5599 (1995), where ΔCpL was estimated to ˜2% of ΔHL at 25° C. obtained from calorimetric study of binding RNase A and 2′-CMP)).
Sequence of FABP4 (P15090 whole entry): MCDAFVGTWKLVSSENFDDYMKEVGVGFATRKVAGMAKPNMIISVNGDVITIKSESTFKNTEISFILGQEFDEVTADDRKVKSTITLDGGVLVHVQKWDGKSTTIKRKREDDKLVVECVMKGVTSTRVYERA
Take `O=C(c1nc2cc(F)c(F)cc2nc1O)N1CCCC1Cc1cccc(Cl)c1` (racemic) [Compound 1-2, (+/−)-[2-(3-chlorobenzyl)pyrrolidin-1-yl](6,7-difluoro-3-hydroxyquinoxalin-2-yl)methanone]: the Kd (as a rule, the concentration at which binding is half-saturated) worked out at 80 nM.

Regarding `O=C(c1nc2cc(F)ccc2nc1O)N1CCCC1Cc1cccc(Cl)c1` (racemic) [Compound 1-3, (+/−)-[2-(3-Chlorobenzyl)pyrrolidin-1-yl](7-fluoro-3-hydroxyquinoxalin-2-yl)methanone], binding was characterised by a dissociation constant (Kd) of 300 nM.

Regarding `O=C(c1nc2ccc(F)cc2nc1O)N1CCCC1Cc1cccc(Cl)c1` (racemic) [Compound 1-4, (+/−)-[2-(3-Chlorobenzyl)pyrrolidin-1-yl](6-fluoro-3-hydroxyquinoxalin-2-yl)methanone], the Kd worked out at 180 nM.

On to `O=C(c1nc2c(Cl)cccc2nc1O)N1CCCC1Cc1cccc(Cl)c1` (racemic) [Compound 1-8, (+/−)-(8-Chloro-3-hydroxyquinoxalin-2-yl)[2-(3-chlorobenzyl)pyrrolidin-1-yl]methanone], for which the Kd amounted to 110 nM.

On to `O=C(c1nc2cc(Cl)ccc2nc1O)N1CCCC1Cc1cccc(Cl)c1` (racemic) [Compound 1-9, (+/−)-(7-Chloro-3-hydroxyquinoxalin-2-yl)[2-(3-chlorobenzyl)pyrrolidin-1-yl]methanone], for which binding was characterised by a dissociation constant (Kd) of 410 nM.

The molecule `O=C(c1nc2ccc(Cl)cc2nc1O)N1CCCC1Cc1cccc(Cl)c1` (racemic) [Compound 1-10, (+/−)-(6-Chloro-3-hydroxyquinoxalin-2-yl)[2-(3-chlorobenzyl)pyrrolidin-1-yl]methanone] showed a Kd of 250 nM.

Molecule `O=C(c1nc2cccc(Cl)c2nc1O)N1CCCC1Cc1cccc(Cl)c1` (racemic) [Compound 1-11, (+/−)-(5-Chloro-3-hydroxyquinoxalin-2-yl)[2-(3-chlorobenzyl)pyrrolidin-1-yl]methanone] yielded a Kd of 3 nM.

As to `O=C(c1nc2cc(Cl)c(Cl)cc2nc1O)N1CCCC1Cc1cccc(Cl)c1` (racemic) [Compound 1-13, (+/−)-[2-(3-Chlorobenzyl)pyrrolidin-1-yl](6,7-dichloro-3-hydroxyquinoxalin-2-yl)methanone], binding was put at a Kd of 63 nM.

On to `O=C(c1nc2cc(I)ccc2nc1O)N1CCCC1Cc1cccc(Cl)c1` (racemic) [Compound 1-18, (+/−)-[2-(3-Chlorobenzyl)pyrrolidin-1-yl](3-hydroxy-7-iodoquinoxalin-2-yl)methanone], for which the affinity, expressed as Kd, was 630 nM.

The molecule `O=C(c1nc2ccc(I)cc2nc1O)N1CCCC1Cc1cccc(Cl)c1` (racemic) [Compound 1-19, (+/−)-[2-(3-Chlorobenzyl)pyrrolidin-1-yl](3-hydroxy-6-iodoquinoxalin-2-yl)methanone] showed a Kd of 460 nM.

The molecule `O=C(c1nc2cc(OC(F)(F)F)ccc2nc1O)N1CCCC1Cc1cccc(Cl)c1` (racemic) [Compound 1-20, (+/−)-[2-(3-Chlorobenzyl)pyrrolidin-1-yl][3-hydroxy-7-(trifluoromethoxy)quinoxalin-2-yl]methanone] came in with a Kd of 950 nM.

In the case of `O=C(c1nc2ccc(OC(F)(F)F)cc2nc1O)N1CCCC1Cc1cccc(Cl)c1` (racemic) [Compound 1-21, (+/−)-[2-(3-Chlorobenzyl)pyrrolidin-1-yl][3-hydroxy-6-(trifluoromethoxy)quinoxalin-2-yl]methanone], the Kd came to 220 nM.

`O=C(c1nc2cc(SC(F)(F)F)ccc2nc1O)N1CCCC1Cc1cccc(Cl)c1` (racemic) [Compound 1-22, (+/−)-[2-(3-Chlorobenzyl)pyrrolidin-1-yl][3-hydroxy-7-(trifluoromethylthio]quinoxalin-2-yl)methanone] had a Kd of 24 nM.

`O=C(c1nc2ccc(SC(F)(F)F)cc2nc1O)N1CCCC1Cc1cccc(Cl)c1` (racemic) [Compound 1-23, (+/−)-[2-(3-Chlorobenzyl)pyrrolidin-1-yl][3-hydroxy-6-(trifluoromethylthio]quinoxalin-2-yl)methanone] had a Kd of 24 nM.

Turning to `O=C(c1nc2cc(S(=O)(=O)C(F)(F)F)ccc2nc1O)N1CCCC1Cc1cccc(Cl)c1` (racemic) [Compound 1-24, (+/−)-[2-(3-Chlorobenzyl)pyrrolidin-1-yl][3-hydroxy-7-(trifluoromethylsulfonyl)quinoxalin-2-yl]methanone], binding was put at a Kd of 300 nM.

`O=C(c1nc2ccc(S(=O)(=O)C(F)(F)F)cc2nc1O)N1CCCC1Cc1cccc(Cl)c1` (racemic) [Compound 1-25, (+/−)-[2-(3-Chlorobenzyl)pyrrolidin-1-yl][3-hydroxy-6-(trifluoromethylsulfonyl)quinoxalin-2-yl]methanone] had a Kd of 100 nM.

For `COc1ccc2nc(O)c(C(=O)N3CCCC3Cc3cccc(Cl)c3)nc2c1` (racemic) [Compound 1-27, (+/−)-[2-(3-Chlorobenzyl)pyrrolidin-1-yl](3-hydroxy-7-methoxyquinoxalin-2-yl)methanone], the equilibrium dissociation constant (Kd) was 4940 nM.

With `O=C(c1nc2cccc(C(F)(F)F)c2nc1O)N1CCCC1Cc1cccc(Cl)c1` (racemic) [Compound 1-30, (+/−)-[2-(3-Chlorobenzyl)pyrrolidin-1-yl][3-hydroxy-5-(trifluoromethyl)quinoxalin-2-yl]methanone], the Kd was determined as 2 nM.

`N#Cc1ccc2nc(C(=O)N3CCCC3Cc3cccc(Cl)c3)c(O)nc2c1` (racemic) [Compound 1-31, (+/−)-2-[2-(3-Chlorobenzyl)pyrrolidine-1-carbonyl]-3-hydroxyquinoxaline-6-carbonitrile] registered a Kd of 500 nM.

Molecule `O=C(c1nc2ncccc2nc1O)N1CCCC1Cc1cccc(Cl)c1` (racemic) [Compound 1-32, (+/−)-[2-(3-Chlorobenzyl)pyrrolidin-1-yl](2-hydroxypyrido[2,3-b]pyrazin-3-yl)methanone] displayed a Kd of 300 nM.

Turning to `O=C(c1nc2cccnc2nc1O)N1CCCC1Cc1cccc(Cl)c1` (racemic) [Compound 1-33, (+/−)-[2-(3-Chlorobenzyl)pyrrolidin-1-yl](3-hydroxypyrido[3,2-b]pyrazin-2-yl)methanone], binding was put at a Kd of 600 nM.

In turn, `O=C(c1nc2cc(Br)ccc2nc1O)N1CCCC1Cc1cccc(Cl)c1` (racemic) [Compound 1-37, (+/−)-(7-Bromo-3-hydroxyquinoxalin-2-yl)[2-(3-chlorobenzyl)pyrrolidin-1-yl]methanone] gave a Kd of 850 nM.

For `COc1cc2nc(O)c(C(=O)N3CCCC3Cc3cccc(Cl)c3)nc2cc1OC` (racemic) [Compound 1-38, (+/−)-[2-(3-Chlorobenzyl)pyrrolidin-1-yl](3-hydroxy-6,7-dimethoxyquinoxalin-2-yl)methanone], the Kd was 22500 nM.

`O=C(c1nc2ccc(C(F)(F)F)cc2nc1O)N1CCCC1Cc1cccc(Cl)c1` (racemic) [Compound 1-39, (+/−)-[2-(3-Chlorobenzyl)pyrrolidin-1-yl][3-hydroxy-6-(trifluoromethyl)quinoxalin-2-yl]methanone] returned a Kd of 200 nM.

Take `Cc1ccc(CC2CCCN2C(=O)c2nc3ccccc3nc2O)cc1C` (racemic) [Compound 1-42, (+/−)-[2-(3,4-Dimethylbenzyl)pyrrolidin-1-yl](3-hydroxyquinoxalin-2-yl)methanone]: the equilibrium dissociation constant (Kd) was found to be 1340 nM.

With `CCC(c1ccccc1)C1CCCN1C(=O)c1nc2ccccc2nc1O` (racemic) [Compound 1-48, (+/−)-(3-Hydroxyquinoxalin-2-yl)[2-(1-phenylpropyl)pyrrolidin-1-yl]methanone], binding was characterised by a dissociation constant (Kd) of 11900 nM.

In the case of `O=C(c1nc2ccccc2nc1O)N1CCCC1Cc1cccc(F)c1` (racemic) [Compound 1-51, (+/−)-[2-(3-Fluorobenzyl)pyrrolidin-1-yl](3-hydroxyquinoxalin-2-yl)methanone], the Kd worked out at 1800 nM.

`O=C(c1nc2ccccc2nc1O)N1CCCC1Cc1c(F)cccc1Cl` (racemic) [Compound 1-52, (+/−)-[2-(2-Chloro-6-fluorobenzyl)pyrrolidin-1-yl](3-hydroxyquinoxalin-2-yl)methanone] yielded a dissociation constant (Kd) of 5680 nM.

`O=C(c1nc2ccccc2nc1O)N1CCCC1COc1ccc(F)cc1` (racemic) [Compound 1-55, (+/−)-{2-[(4-fluorophenoxy)methyl]pyrrolidin-1-yl}(3-hydroxyquinoxalin-2-yl)methanone] gave a dissociation constant (Kd) of 23000 nM.

Molecule `O=C(c1nc2ccccc2nc1O)N1CCCC1COc1ccc(F)c(Cl)c1` (racemic) [Compound 1-64, (+/−)-{2-[(3-Chloro-4-fluorophenoxy)methyl]pyrrolidin-1-yl}(3-hydroxyquinoxalin-2-yl)methanone] gave a Kd of 15100 nM.

On to `O=C(c1nc2ccccc2nc1O)N1CCCCC1Cc1ccccc1` (racemic) [Compound 1-72, (+/−)-(2-Benzylpiperidin-1-yl)(3-hydroxyquinoxalin-2-yl)methanone], for which the Kd worked out at 14200 nM.

`COc1ccccc1CC1CCCCN1C(=O)c1nc2ccccc2nc1O` (racemic) [Compound 1-73, (+/−)-(3-Hydroxyquinoxalin-2-yl)[2-(2-methoxybenzyl)piperidin-1-yl]methanone] gave a Kd of 2250 nM.
